The values below come from PubChem BioAssay AID1259407 (Chemical Carcinogenesis Research Information System (CCRIS), 2018).

Calls of active or inactive are those of the source. How the calls were made is not given here.

The subject of this series is CCRIS mutagenicity, Ames/micronucleus/aberration tests. Description: CCRIS mutagenicity studies.
Setting [1] is: Test System: AMES SALMONELLA TYPHIMURIUM, Strain/Indicator: TA1535, Metabolic Activation: NONE, Method: PREINCUBATION
[2] abbreviates: Test System: AMES SALMONELLA TYPHIMURIUM, Strain/Indicator: TA1537, Metabolic Activation: NONE, Method: PREINCUBATION

Consider `CCC[N+](=O)[O-]`, for which the mutagenic call was “inactive; negative” (Test System: AMES SALMONELLA TYPHIMURIUM, Strain/Indicator: TA98, Metabolic Activation: RAT LIVER S-9, PHENOBARBITAL AND BETA-NAPHTHOFLAVONE, Method: PREINCUBATION); “inactive; negative” (Test System: AMES SALMONELLA TYPHIMURIUM, Strain/Indicator: TA98, Metabolic Activation: RAT, LIVER, S-9, AROCLOR, Method: PREINCUBATION); “inactive; negative” (Test System: AMES SALMONELLA TYPHIMURIUM, Strain/Indicator: TA98, Metabolic Activation: RAT, LIVER, S-9, CLOPHEN A-50, Method: PREINCUBATION); “inactive; negative” (Test System: AMES SALMONELLA TYPHIMURIUM, Strain/Indicator: TA98, Metabolic Activation: RAT, LIVER, S-9, KANECHLOR 500, Method: PREINCUBATION); “inactive; negative” (Test System: AMES SALMONELLA TYPHIMURIUM, Strain/Indicator: TA100, Metabolic Activation: RAT LIVER S-9, PHENOBARBITAL AND BETA-NAPHTHOFLAVONE, Method: PREINCUBATION); “inactive; negative” (Test System: AMES SALMONELLA TYPHIMURIUM, Strain/Indicator: TA100, Metabolic Activation: RAT, LIVER, S-9, AROCLOR, Method: PREINCUBATION). The mutagenic call (Test System: AMES SALMONELLA TYPHIMURIUM, Strain/Indicator: TA100, Metabolic Activation: RAT, LIVER, S-9, CLOPHEN A-50, Method: PREINCUBATION) was “inactive; negative”; the mutagenic call (Test System: AMES SALMONELLA TYPHIMURIUM, Strain/Indicator: TA100, Metabolic Activation: RAT, LIVER, S-9, KANECHLOR 500, Method: PREINCUBATION) was “inactive; negative”; the mutagenic call (Test System: AMES SALMONELLA TYPHIMURIUM, Strain/Indicator: TA102, Metabolic Activation: NONE, Method: PREINCUBATION) is “inactive; negative”; the mutagenic call (Test System: AMES SALMONELLA TYPHIMURIUM, Strain/Indicator: TA102, Metabolic Activation: RAT LIVER S-9, PHENOBARBITAL AND BETA-NAPHTHOFLAVONE, Method: PREINCUBATION) is “inactive; negative”; the mutagenic call (Test System: AMES SALMONELLA TYPHIMURIUM, Strain/Indicator: TA102, Metabolic Activation: RAT, LIVER, S-9, AROCLOR, Method: PREINCUBATION) was “inactive; negative”; the mutagenic call (Test System: AMES SALMONELLA TYPHIMURIUM, Strain/Indicator: TA104, Metabolic Activation: NONE, Method: PREINCUBATION) is “inactive; negative”. Further, the mutagenic call was “inactive; negative” (Test System: AMES SALMONELLA TYPHIMURIUM, Strain/Indicator: TA104, Metabolic Activation: RAT LIVER S-9, PHENOBARBITAL AND BETA-NAPHTHOFLAVONE, Method: PREINCUBATION); “inactive; negative” under setting [1]; “inactive; negative” (Test System: AMES SALMONELLA TYPHIMURIUM, Strain/Indicator: TA1535, Metabolic Activation: RAT LIVER S-9, PHENOBARBITAL AND BETA-NAPHTHOFLAVONE, Method: PREINCUBATION); “inactive; negative” under setting [2]; “inactive; negative” (Test System: AMES SALMONELLA TYPHIMURIUM, Strain/Indicator: TA1537, Metabolic Activation: RAT LIVER S-9, PHENOBARBITAL AND BETA-NAPHTHOFLAVONE, Method: PREINCUBATION); “active; positive” (Test System: CHINESE HAMSTER V-79, Strain/Indicator: V-79/6-THIOGUANINE, Metabolic Activation: NONE, Method: STANDARD PLATE). Besides, the mutagenic call (Test System: E. COLI, Strain/Indicator: WP2 UVRA (PKM101), Metabolic Activation: NONE, Method: PREINCUBATION) is “inactive; negative”; the mutagenic call (Test System: E.COLI, Strain/Indicator: WP2UVRA/PKM101, Metabolic Activation: NONE, Method: PREINCUBATION) is “inactive; negative”; the mutagenic call (Test System: E.COLI, Strain/Indicator: WP2UVRA/PKM101, Metabolic Activation: RAT LIVER S-9, PHENOBARBITAL AND BETA-NAPHTHOFLAVONE, Method: PREINCUBATION) is “inactive; negative”; the mutagenic call (Test System: E.COLI, Strain/Indicator: WP2UVRA, Metabolic Activation: NONE, Method: PREINCUBATION) was “inactive; negative”; the mutagenic call (Test System: E.COLI, Strain/Indicator: WP2UVRA, Metabolic Activation: RAT LIVER S-9, PHENOBARBITAL AND BETA-NAPHTHOFLAVONE, Method: PREINCUBATION) was “inactive; negative”; the mutagenic call (Test System: UDS RAT HEPATOCYTES, Strain/Indicator: THY INCORP, Metabolic Activation: NONE) was “inactive; negative”. For the same compound, the mutagenic call (Test System: UDS RODENT HEPATOCYTES, Strain/Indicator: THY INCORP (NON-S-PHASE), Metabolic Activation: NONE, Method: PREINCUBATION) was “inactive; negative”.
`c1ccoc1`: the mutagenic call (End Point: In vitro micronucleus, Test System: Human lymphocytes, Metabolic Activation: None) was “inactive; negative”; the mutagenic call (End Point: In vitro micronucleus, Test System: Human lymphocytes, Metabolic Activation: Rat, liver, S-9, Aroclor 1254) was “inactive; negative”; the mutagenic call (End Point: In vitro micronucleus, Test System: Mouse lymphoma L5178Y cells, Metabolic Activation: None) was “inactive; negative”; the mutagenic call (End Point: In vivo micronucleus, Test System: Peripheral blood erythrocytes, Species: Mouse, Strain/Sex: Balb/C/Male, Route: Intraperitoneal) was “inactive; negative”; the mutagenic call (End Point: In vivo micronucleus, Test System: Peripheral blood erythrocytes, Species: Mouse, Strain/Sex: Balb/C/Male, Route: Subcutaneous) is “inactive; negative”; the mutagenic call (Test System: AMES SALMONELLA TYPHIMURIUM, Strain/Indicator: TA98, Metabolic Activation: HAMSTER, LIVER, S-9, AROCLOR 1254 (10%), Method: PREINCUBATION) is “inactive; negative”. Further, the mutagenic call was “inactive; negative” (Test System: AMES SALMONELLA TYPHIMURIUM, Strain/Indicator: TA98, Metabolic Activation: NONE, Method: PREINCUBATION); “inactive; negative” (Test System: AMES SALMONELLA TYPHIMURIUM, Strain/Indicator: TA98, Metabolic Activation: RAT, LIVER, S-9, AROCLOR 1254 (10%), Method: PREINCUBATION); “inactive; negative” (Test System: AMES SALMONELLA TYPHIMURIUM, Strain/Indicator: TA98, Metabolic Activation: RAT, LIVER, S-9, AROCLOR 1254, Method: STANDARD PLATE); “active; positive” (Test System: AMES SALMONELLA TYPHIMURIUM, Strain/Indicator: TA98, Metabolic Activation: S-9, Method: STANDARD PLATE); “inactive; negative” (Test System: AMES SALMONELLA TYPHIMURIUM, Strain/Indicator: TA100, Metabolic Activation: HAMSTER, LIVER, S-9, AROCLOR 1254 (10%), Method: PREINCUBATION); “inactive; negative” (Test System: AMES SALMONELLA TYPHIMURIUM, Strain/Indicator: TA100, Metabolic Activation: NONE, Method: PREINCUBATION). Further, the mutagenic call by setting is: (Test System: AMES SALMONELLA TYPHIMURIUM, Strain/Indicator: TA100, Metabolic Activation: RAT, LIVER, S-9, AROCLOR 1254 (10%), Method: PREINCUBATION) “inactive; negative”; (Test System: AMES SALMONELLA TYPHIMURIUM, Strain/Indicator: TA100, Metabolic Activation: S-9, Method: STANDARD PLATE) “inactive; negative”; (Test System: AMES SALMONELLA TYPHIMURIUM, Strain/Indicator: TA1535, Metabolic Activation: HAMSTER, LIVER, S-9, AROCLOR 1254 (10%), Method: PREINCUBATION) “inactive; negative”; under setting [1], “inactive; negative”; (Test System: AMES SALMONELLA TYPHIMURIUM, Strain/Indicator: TA1535, Metabolic Activation: RAT, LIVER, S-9, AROCLOR 1254 (10%), Method: PREINCUBATION) “inactive; negative”; (Test System: AMES SALMONELLA TYPHIMURIUM, Strain/Indicator: TA1537, Metabolic Activation: HAMSTER, LIVER, S-9, AROCLOR 1254 (10%), Method: PREINCUBATION) “inactive; negative”. For the same compound, the mutagenic call under setting [2] was “inactive; negative”; the mutagenic call (Test System: AMES SALMONELLA TYPHIMURIUM, Strain/Indicator: TA1537, Metabolic Activation: RAT, LIVER, S-9, AROCLOR 1254 (10%), Method: PREINCUBATION) is “inactive; negative”; the mutagenic call (Test System: Mouse lymphoma, Strain/Indicator: L5178Y (tk+/tk-), Metabolic Activation: None, Method: Preincubation) was “inactive; negative”.
